# Laboratory results published in patent US8981092B2, “Substituted 3,4-dihydro-2H-pyrrolo[1,2-a]pyrazin-1-ones as modulators of protein kinase activity” (Nerviano Medical Sciences S.r.l., priority 2008, dated 2015).
# Molecular target: Full-length human PIM-1 (Homo sapiens, UniProt P11309)
# Details: read-out: PIM-1 IC50; ATP 200 μM, Aktide 25 μM, enzyme 1 nM
# Protocol: Biochemical Assay for Inhibitors of PIM-1 Kinase Activity
# The inhibitory activity of putative kinase inhibitors and the potency of selected compounds were determined using a trans-phosphorylation assay.
# Specific peptide or protein substrates are trans-phosphorylated by their specific ser-thr or tyr kinase in the presence of ATP traced with ^33P-γ-ATP, and in the presence of their own optimal buffer and cofactors.
# At the end of the phosphorylation reaction, more than 98% unlabeled ATP and radioactive ATP is captured by an excess of the ion exchange dowex resin; the resin then settles down to the bottom of the reaction plate by gravity.
# Supernatant is subsequently withdrawn and transferred into a counting plate, then evaluated by β-counting.
# The buffer for PIM-1 assay was composed of HEPES 50 mM, at pH 7.5, with 10 mM MgCl2, 1 mM DTT, 3 μM NaVO3, and 0.2 mg/ml BSA
# ATP concentration: 200 μM
# Enzyme concentration: 1 nM
# The test mix consisted of:
# 1) 3× Enzyme mix (done in Kinase Buffer 3×), 5 μL/well
# 2) 3× substrate and ATP mix (done in ddH2O), together with ^33P-γ-ATP, 5 μL/well
# 3) 3× test compounds (diluted into ddH2O-3% DMSO)-5 μL/well
# a) for percent inhibition studies (HTS), individual dilution plates at 1 mM are diluted at a 3× concentration (30 μM) in ddH2O (3% DMSO=final concentration) using a Beckman NX automated pipetting platform. The same instrument is used for distributing the diluted mother plates into the test plates.
# An automated station for serial dilutions (Biomek FX, Beckman) is used for producing 1:3 dilutions in 100% DMSO, from line A1 to A10, and for all the seven compounds in the column.
# At the start of the run, the robot aspirates 5 μL of ATP mix, makes an air gap inside the tips (2 μL) and aspirates 2 μL of PIM mix. The following dispensation into the plates allows the kinase reaction to start upon 3 cycles of mixing, done by the robot itself.
# The robot incubates the plates for 60 minutes at room temperature, and then stops the reaction by pipetting 70 μL of dowex resin suspension into the reaction mix. Three cycles of mixing are done immediately after the addition of the resin.
# Another mixing cycle is performed after all the plates are stopped, this time using normal tips: the plates are then allowed to rest for about one hour in order to maximize ATP capture.
# Data are analysed by an internally customized version of the SW package “Assay Explorer” that provides either % inhibition for primary assays or sigmoidal fittings of the ten-dilutions curves for IC50 determination in the secondary assays/hit confirmation routines.
# Chain of Full-length human PIM-1 (P11309 whole entry): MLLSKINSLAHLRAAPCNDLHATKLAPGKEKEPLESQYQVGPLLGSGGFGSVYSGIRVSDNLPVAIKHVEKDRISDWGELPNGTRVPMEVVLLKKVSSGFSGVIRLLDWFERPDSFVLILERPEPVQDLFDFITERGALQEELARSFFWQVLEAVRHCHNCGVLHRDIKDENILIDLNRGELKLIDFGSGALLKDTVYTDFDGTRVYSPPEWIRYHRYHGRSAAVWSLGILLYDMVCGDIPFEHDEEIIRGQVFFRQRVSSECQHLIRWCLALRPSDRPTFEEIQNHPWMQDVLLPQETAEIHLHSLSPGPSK
row,SMILES,IC50 [µM]
1,CN1CCN(C(=O)CC2CNC(=O)c3cc(-c4cccc(F)c4)cn32)C(c2ccccc2)C1 (mixture of isomers) [Compound A127-M-B63],0.39
2,CN1CCN(C(=O)CC2CNC(=O)c3cc(-c4cccc(C(F)(F)F)c4)cn32)C(c2ccccc2)C1 (mixture of isomers) [Compound A133-M-B63],2.54
3,CN1CCN(C(=O)CC2CNC(=O)c3cc(-c4ccnc(F)c4)cn32)C(c2ccccc2)C1 (mixture of isomers) [Compound A157-M-B63],0.69
4,CN1CCN(C(=O)CC2CNC(=O)c3cc(-c4cc(F)ccc4F)cn32)C(c2ccccc2)C1 (mixture of isomers) [Compound A158-M-B63],0.4
5,O=C(C[C@H]1CNC(=O)c2cc(-c3cccc(F)c3)cn21)N[C@H](CO)C1CCCCC1 [A127-M-B61 isomer S],0.02
6,O=C(C[C@H]1CNC(=O)c2cc(-c3cccc(F)c3)cn21)N[C@H](CO)c1ccccc1 [A127-M-B62 isomer S],0.09
7,O=C(C[C@@H]1CNC(=O)c2cc(-c3cccc(F)c3)cn21)N[C@H](CO)Cc1ccccc1 [A127-M-B64 isomer R],2.91
8,NC[C@@H](NC(=O)C[C@H]1CNC(=O)c2cc(-c3cccc(F)c3)cn21)c1ccccc1 [A127-M-B65 isomer S],0.01
9,O=C(C[C@@H]1CNC(=O)c2cc(-c3cccc(C(F)(F)F)c3)cn21)N[C@H](CO)C1CCCCC1 [A133-M-B61 isomer R],5.94
10,O=C(C[C@H]1CNC(=O)c2cc(-c3cccc(C(F)(F)F)c3)cn21)N[C@H](CO)C1CCCCC1 [A133-M-B61 isomer S],0.07
11,O=C(C[C@@H]1CNC(=O)c2cc(-c3cccc(C(F)(F)F)c3)cn21)N[C@H](CO)c1ccccc1 [A133-M-B62 isomer R],4.83
12,O=C(C[C@H]1CNC(=O)c2cc(-c3cccc(C(F)(F)F)c3)cn21)N[C@H](CO)c1ccccc1 [A133-M-B62 isomer S],0.13
13,O=C(C[C@@H]1CNC(=O)c2cc(-c3cccc(C(F)(F)F)c3)cn21)N[C@H](CO)Cc1ccccc1 [A133-M-B64 isomer R],2.04
14,NC[C@@H](NC(=O)C[C@H]1CNC(=O)c2cc(-c3cccc(C(F)(F)F)c3)cn21)c1ccccc1 [A133-M-B65 isomer S],0.05
15,O=C(C[C@@H]1CNC(=O)c2cc(-c3ccnc(F)c3)cn21)N[C@H](CO)C1CCCCC1 [A157-M-B61 isomer R],0.27
16,O=C(C[C@@H]1CNC(=O)c2cc(-c3ccnc(F)c3)cn21)N[C@H](CO)c1ccccc1 [A157-M-B62 isomer R],1.14
17,O=C(C[C@@H]1CNC(=O)c2cc(-c3ccnc(F)c3)cn21)N[C@H](CO)Cc1ccccc1 [A157-M-B64 isomer R],0.7
18,O=C(C[C@@H]1CNC(=O)c2cc(-c3cc(F)ccc3F)cn21)N[C@H](CO)C1CCCCC1 [A158-M-B61 isomer R],0.86
19,O=C(C[C@@H]1CNC(=O)c2cc(-c3cc(F)ccc3F)cn21)N[C@H](CO)c1ccccc1 [A158-M-B62 isomer R],0.55
20,NCC(NC(=O)CC1CNC(=O)c2cc(-c3cc(F)ccc3F)cn21)c1ccccc1 (stereo not drawn) [A158-M-B65 isomer S],0.03
21,O=C(CC1CNC(=O)c2cc(-c3ccsc3)cn21)NCC1CCCCC1 (stereo not drawn) [Compound A33-M-B22],0.46
22,O=C(CC1CNC(=O)c2cc(-c3ccsc3)cn21)NCc1cccc(F)c1 (stereo not drawn) [Compound A33-M-B30],0.58

row,SMILES,IC50 [µM]
1,O=C(CC1CNC(=O)c2cc(-c3cccc(F)c3)cn21)NCc1ccccc1 (stereo not drawn) [Compound A127-M-B14],0.18
2,O=C(CC1CNC(=O)c2cc(-c3cccc(F)c3)cn21)NCc1cccc(F)c1 (stereo not drawn) [Compound A127-M-B30],0.19
3,CC(C)CCNC(=O)CC1CNC(=O)c2cc(-c3cccc(F)c3)cn21 (stereo not drawn) [Compound A127-M-B32],0.61
4,O=C(CC1CNC(=O)c2cc(-c3cccc(F)c3)cn21)NCc1ccncc1 (stereo not drawn) [Compound A127-M-B39],0.57
5,O=C(CC1CNC(=O)c2cc(-c3ccccc3F)cn21)NCc1ccccc1 (stereo not drawn) [Compound A128-M-B14],0.2
6,O=C(CC1CNC(=O)c2cc(-c3ccccc3F)cn21)NCC1CCCCC1 (stereo not drawn) [Compound A128-M-B22],0.12
7,O=C(CC1CNC(=O)c2cc(-c3ccccc3F)cn21)NCc1cccc(F)c1 (stereo not drawn) [Compound A128-M-B30],0.27
8,CC(C)CCNC(=O)CC1CNC(=O)c2cc(-c3ccccc3F)cn21 (stereo not drawn) [Compound A128-M-B32],0.7
9,O=C(CC1CNC(=O)c2cc(-c3ccccc3F)cn21)NCc1ccncc1 (stereo not drawn) [Compound A128-M-B39],0.54
10,O=C(CC1CNC(=O)c2cc(-c3ccccc3F)cn21)NCc1ccco1 (stereo not drawn) [Compound A128-M-B40],0.25
11,O=C(CC1CNC(=O)c2cc(-c3ccc(F)cc3)cn21)NCC1CCCCC1 (stereo not drawn) [Compound A129-M-B22],0.13
12,O=C(CC1CNC(=O)c2cc(-c3ccc4c(c3)OCO4)cn21)NCC1CCCCC1 (stereo not drawn) [Compound A132-M-B22],0.36
13,O=C(CC1CNC(=O)c2cc(-c3cccc(C(F)(F)F)c3)cn21)NCc1ccccc1 (stereo not drawn) [Compound A133-M-B14],0.81
14,O=C(CC1CNC(=O)c2cc(-c3cccc(C(F)(F)F)c3)cn21)NCC1CCCCC1 (stereo not drawn) [Compound A133-M-B22],0.38
15,O=C(CC1CNC(=O)c2cc(-c3cccc(C(F)(F)F)c3)cn21)NCc1ccc(F)cc1 (stereo not drawn) [Compound A133-M-B30],0.61
16,O=C(CC1CNC(=O)c2cc(-c3cccc(OC(F)(F)F)c3)cn21)NCc1ccccc1 (stereo not drawn) [Compound A134-M-B14],0.72
17,O=C(CC1CNC(=O)c2cc(-c3cccc(OC(F)(F)F)c3)cn21)NCc1cccc(F)c1 (stereo not drawn) [Compound A134-M-B30],0.89
18,O=C(CC1CNC(=O)c2cc(-c3ccc(F)c(F)c3)cn21)NCc1ccccc1 (stereo not drawn) [Compound A139-M-B14],0.22
19,O=C(CC1CNC(=O)c2cc(-c3ccc(F)c(F)c3)cn21)NCC1CCCCC1 (stereo not drawn) [Compound A139-M-B22],0.09
20,O=C(CC1CNC(=O)c2cc(-c3ccc(F)c(F)c3)cn21)NCc1ccc(F)cc1 (stereo not drawn) [Compound A139-M-B30],0.41
21,O=C(CC1CNC(=O)c2cc(-c3ccc(F)c(F)c3)cn21)NCc1ccncc1 (stereo not drawn) [Compound A139-M-B39],0.98
22,O=C(CC1CNC(=O)c2cc(-c3ccc(F)c(F)c3)cn21)NCc1ccco1 (stereo not drawn) [Compound A139-M-B40],0.13

row,SMILES,IC50 [µM]
1,COC(=O)c1cccc(-c2cc3n(c2)C(CC(=O)NCc2ccccc2)CNC3=O)c1 (stereo not drawn) [Compound A142-M-B14],4.83
2,COC(=O)c1cccc(-c2cc3n(c2)C(CC(=O)NCc2cccc(F)c2)CNC3=O)c1 (stereo not drawn) [Compound A142-M-B30],2.52
3,O=C(CC1CNC(=O)c2cc(-c3cn[nH]c3)cn21)NCc1ccccc1 (stereo not drawn) [Compound A144-M-B14],≥ 10
4,O=C(CC1CNC(=O)c2cc(-c3cn[nH]c3)cn21)NCC1CCCCC1 (stereo not drawn) [Compound A144-M-B22],0.48
5,O=C(CC1CNC(=O)c2cc(-c3cn[nH]c3)cn21)NCc1ccc(F)cc1 (stereo not drawn) [Compound A144-M-B30],1.1
6,O=C(CC1CNC(=O)c2cc(-c3cccc(Cl)c3)cn21)NCc1ccccc1 (stereo not drawn) [Compound A150-M-B14],0.14
7,O=C(CC1CNC(=O)c2cc(-c3cccc(Cl)c3)cn21)NC1CCCCC1 (stereo not drawn) [Compound A150-M-B24],0.21
8,CCCNC(=O)CC1CNC(=O)c2cc(-c3cccc(Cl)c3)cn21 (stereo not drawn) [Compound A150-M-B25],0.45
9,O=C(CC1CNC(=O)c2cc(-c3cccc(Cl)c3)cn21)NC1CCCC1 (stereo not drawn) [Compound A150-M-B26],0.24
10,CC(C)CCNC(=O)CC1CNC(=O)c2cc(-c3cccc(Cl)c3)cn21 (stereo not drawn) [Compound A150-M-B32],0.23
11,Cc1ccccc1NC(=O)CC1CNC(=O)c2cc(-c3cccc(Cl)c3)cn21 (stereo not drawn) [Compound A150-M-B36],1.39
12,O=C(CC1CNC(=O)c2cc(-c3cccc(Cl)c3)cn21)NCCN1CCOCC1 (stereo not drawn) [Compound A150-M-B38],1.06
13,O=C(CC1CNC(=O)c2cc(-c3cccc(Cl)c3)cn21)NCc1ccncc1 (stereo not drawn) [Compound A150-M-B39],0.22
14,COCCCNC(=O)CC1CNC(=O)c2cc(-c3cccc(Cl)c3)cn21 (stereo not drawn) [Compound A150-M-B42],0.59
15,CC(C)(C)NC(=O)CC1CNC(=O)c2cc(-c3cccc(Cl)c3)cn21 (stereo not drawn) [Compound A150-M-B43],0.79
16,O=C1NCC(CC(=O)N2CCCCCC2)n2cc(-c3cccc(Cl)c3)cc21 (stereo not drawn) [Compound A150-M-B45],0.58
17,O=C(CC1CNC(=O)c2cc(-c3cccc(Cl)c3)cn21)NCC1CC1 (stereo not drawn) [Compound A150-M-B48],0.12
18,C=CCN1CCN(C(=O)CC2CNC(=O)c3cc(-c4cccc(Cl)c4)cn32)CC1 (stereo not drawn) [Compound A150-M-B49],0.23
19,O=C(CC1CNC(=O)c2cc(-c3cccc(Cl)c3)cn21)Nc1ccccc1 (stereo not drawn) [Compound A150-M-B52],0.43
20,O=C(CC1CNC(=O)c2cc(-c3ccc(F)cc3F)cn21)NCc1ccccc1 (stereo not drawn) [Compound A151-M-B14],0.1
21,CC(C)CCNC(=O)CC1CNC(=O)c2cc(-c3ccc(F)cc3F)cn21 (stereo not drawn) [Compound A151-M-B32],0.49
22,O=C(CC1CNC(=O)c2cc(-c3ccc(F)cc3F)cn21)NCc1ccncc1 (stereo not drawn) [Compound A151-M-B39],4.11
